Measurements reported in patent publication US9902713B2, “Neuroprotective compounds and use thereof” (BOARD OF REGENTS OF THE UNIVERSITY OF TEXAS SYSTEM, priority 2013, dated 2018).

Experiments:
U2OS cells = test: Protection from doxorubicin-mediated toxicity (Dox:Tox); format: cell-based
[1] = test system: intracellular levels of NAD; test: Intracellular NAD levels by mass spectrometry; format: cell-based; conditions: 3 uM, 12 hrs
Excerpt: Cultured cells were exposed to varying levels of “A20” (X-axis) for 12 hrs. Intracellular levels of NAD (Y-axis) were monitored by mass spectrometry.

[2] = test system: dopaminergic neurons within the substantia nigra; conditions: previously reported; cited from earlier work
[3] = test system: motor neurons in the spinal cord; conditions: previously reported; cited from earlier work
H2122 = test: Toxicity towards human cancer cell line; format: cell-based; conditions: NCI-H2122
H2009 = test: Toxicity towards human cancer cell line; format: cell-based; conditions: NCI-H2009
[4] = biological target: (Homo sapiens, UniProt P10635); test: Cytochrome P450 inhibition; format: in vitro ADME; conditions: 3D6
2C8 = 2C8 (Homo sapiens, UniProt P10632); test: Cytochrome P450 inhibition; format: in vitro ADME
hERG = hERG (Homo sapiens, UniProt Q12809); test: hERG patch clamp assay
CYP1A2 = CYP1A2 (Homo sapiens, UniProt P05177); test: Cytochrome P450 inhibition
newborn neurons = test: Survival of BrdU-prelabeled newborn neurons (FIG. 4); format: in vivo, mice; conditions: BrdU bolus, then twice-daily IP 7 days
Method: (§1) Adult mice were administered a bolus of BrdU (150 mg/kg) to label newborn neurons, and 24 hours later, twice-daily IP treatment was begun with vehicle or compound for 7 days. At the end of the 7 days, the number of surviving BrdU-labeled neurons was quantified. Importantly, under the conditions of this experiment, newborn neurons were labeled prior to exposure to drug, so any increase in number of neurons can be attributed to neuroprotective activity rather than proliferative effects. […] Data shown are mean+/−SEM. P values are shown for comparison to VEH treated group, and were obtained by one-way ANOVA with Dunnet's post-hoc test, using GraphPad Prism 5.0. Asterisks indicate p<0.01 (*) or p<0.0001 (***).
as §1, with “Specifically, in FIG. 4, adult” for “Adult”, “Asterisks indicate p<0.01 (*) or p<0.0001 (***).” left out

[5] = Metabolic stability in hepatocytes; format: in vitro ADME; conditions: murine hepatocytes
Method: The pharmacokinetic and toxicity profiles of P7C3-S243 were evaluated using both in vivo and in vitro methods. Having observed near complete metabolic stability in the presence of murine hepatocytes (T1/2>240 min), we monitored plasma and brain levels of the compound following IV, oral and IP dosing.

[6] = test system: hippocampal CA1 Schaffer-collateral pathway; test: Hippocampal electrophysiology (LTP, PPF) after blast-mediated TBI; format: in vivo, mice
Method: To test our hypothesis that performance in the Barnes maze was associated with hippocampal function, we investigated synaptic plasticity in the hippocampus. Specifically, we measured both long-term potentiation (LTP) and paired pulse facilitation (PPF) in brain slices derived from mice exposed to blast-injury as a function of treatment with different doses of P7C3-S243 for 9 days, initiated 24 hours after injury, in animals not subjected to behavioral testing. The stimulating electrode activated CA3 Schaeffer collateral axons, and the recording electrode was placed in the stratum radiatum of the CA1 region, where Schaffer collateral axons synapse with dendrites from CA1 pyramidal cells. […] Thus, dose-dependent protective efficacy of P7C3-S243 in behavioral tasks of learning and memory correlated with hippocampal function.
Electrophysiology. Single-housed, naïve 7- to 9-week-old male C57BL/6J mice received intraperitoneal injections of P7C3-S243 (0.3, 3, or 30 mg/kg/day) or vehicle 24 h following a single sham- or blast-Injury. On the tenth day after injury, coronal hippocampal slices (400 μm) were prepared, in accordance with the University of Iowa guidelines. Briefly, hippocampal slices were cut using a Vibratome 1000 Plus (Vibratome, St. Louis, Mo.) in ice-cold slicing buffer (in mM: 127 NaCl, 26 NaHCO3, 1.2 KH2PO4, 1.9 KCl, 1.1 CaCl2, 2 MgSO4, 10 D-Glucose) bubbled with 95% 02 and 5% CO2. Slices were then transferred to a holding chamber containing oxygenated artificial cerebrospinal fluid (ACSF; in mM: 127 NaCl, 26 NaHCO3, 1.2 KH2PO4, 1.9 KCl, 2.2 CaCl2, 1 MgSO4, 10 D-Glucose) for 30 min at 34 C and for another 30 min at 22° C. for recovery, and then transferred to a submersion recording chamber continually perfused with 32° C. oxygenated ACSF (rate: 2 ml/min). Slices were equilibrated for at least 15 min before each recording.
ACSF-filled glass electrodes (resistance <1 MΩ) were positioned in the stratum radiatum of area CA1 for extracellular recording. Synaptic responses were evoked by stimulating Schaffer collaterals with 0.2 ms pulses once every 15 s. […] Experiments with maximal fEPSPs of less than 0.5 mV, with large fiber volleys, or with substantial changes in the fiber volley during recording were rejected. LTP was induced by 12TBS (12 bursts, each of 4 pulses at 100 Hz).
Field EPSPs were recorded (AxoClamp 900A amplifier, Axon Instruments, Foster City, Calif.), filtered at 1 kHz, digitized at 10 kHz (Axon Digidata 1440), and stored for off-line analysis (Clampfit 10). Initial slopes of fEPSPs were expressed as percentages of baseline averages. In summary graphs, each point represents the average of 4 consecutive responses. The time-matched, normalized data were averaged across experiments.

[7] = Pharmacokinetic analysis, plasma and brain levels

Chain of 2C8 (P10632 whole entry): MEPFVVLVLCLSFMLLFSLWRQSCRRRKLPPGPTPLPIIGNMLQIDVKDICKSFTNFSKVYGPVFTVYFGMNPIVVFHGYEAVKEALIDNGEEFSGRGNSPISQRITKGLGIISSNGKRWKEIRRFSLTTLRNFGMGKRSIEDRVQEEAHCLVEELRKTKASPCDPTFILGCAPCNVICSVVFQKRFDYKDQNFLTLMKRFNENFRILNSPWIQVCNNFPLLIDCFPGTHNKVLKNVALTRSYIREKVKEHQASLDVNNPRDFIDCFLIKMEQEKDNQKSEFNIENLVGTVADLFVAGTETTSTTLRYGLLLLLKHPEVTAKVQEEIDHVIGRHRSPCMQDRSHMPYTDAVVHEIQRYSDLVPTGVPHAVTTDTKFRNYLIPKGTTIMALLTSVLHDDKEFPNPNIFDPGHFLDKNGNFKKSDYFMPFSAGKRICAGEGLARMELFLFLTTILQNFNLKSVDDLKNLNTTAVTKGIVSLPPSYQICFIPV
Chain of hERG (Q12809 whole entry): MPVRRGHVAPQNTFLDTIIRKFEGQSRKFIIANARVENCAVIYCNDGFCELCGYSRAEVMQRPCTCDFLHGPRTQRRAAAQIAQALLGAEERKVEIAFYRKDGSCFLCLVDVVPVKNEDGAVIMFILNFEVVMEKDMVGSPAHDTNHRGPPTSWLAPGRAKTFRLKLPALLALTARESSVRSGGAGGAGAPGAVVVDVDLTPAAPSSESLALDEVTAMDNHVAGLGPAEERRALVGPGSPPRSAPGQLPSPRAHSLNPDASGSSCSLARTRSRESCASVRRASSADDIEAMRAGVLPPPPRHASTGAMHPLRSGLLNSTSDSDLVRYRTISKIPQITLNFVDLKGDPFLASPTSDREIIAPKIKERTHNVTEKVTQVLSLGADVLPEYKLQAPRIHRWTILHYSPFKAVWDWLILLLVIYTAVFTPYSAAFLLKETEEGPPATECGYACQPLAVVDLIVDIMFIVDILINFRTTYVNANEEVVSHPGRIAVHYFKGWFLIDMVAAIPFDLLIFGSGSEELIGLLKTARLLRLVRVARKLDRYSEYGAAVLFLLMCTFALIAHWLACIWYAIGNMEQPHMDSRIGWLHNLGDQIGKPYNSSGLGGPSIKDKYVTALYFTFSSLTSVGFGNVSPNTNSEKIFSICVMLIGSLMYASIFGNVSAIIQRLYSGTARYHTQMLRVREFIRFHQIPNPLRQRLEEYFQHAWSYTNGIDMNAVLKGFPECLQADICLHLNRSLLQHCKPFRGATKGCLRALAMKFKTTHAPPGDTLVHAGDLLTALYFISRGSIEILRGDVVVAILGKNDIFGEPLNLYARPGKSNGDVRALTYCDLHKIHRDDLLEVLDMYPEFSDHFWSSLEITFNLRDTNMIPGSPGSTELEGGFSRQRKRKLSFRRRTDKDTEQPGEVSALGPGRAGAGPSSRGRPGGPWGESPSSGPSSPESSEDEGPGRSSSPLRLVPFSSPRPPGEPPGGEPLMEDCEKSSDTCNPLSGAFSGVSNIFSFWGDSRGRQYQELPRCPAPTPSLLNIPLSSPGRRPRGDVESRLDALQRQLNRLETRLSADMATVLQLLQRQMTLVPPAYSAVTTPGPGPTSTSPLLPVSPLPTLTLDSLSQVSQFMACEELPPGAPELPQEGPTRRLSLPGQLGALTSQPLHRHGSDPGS
Chain of (Homo sapiens, UniProt P10635) (P10635 whole entry): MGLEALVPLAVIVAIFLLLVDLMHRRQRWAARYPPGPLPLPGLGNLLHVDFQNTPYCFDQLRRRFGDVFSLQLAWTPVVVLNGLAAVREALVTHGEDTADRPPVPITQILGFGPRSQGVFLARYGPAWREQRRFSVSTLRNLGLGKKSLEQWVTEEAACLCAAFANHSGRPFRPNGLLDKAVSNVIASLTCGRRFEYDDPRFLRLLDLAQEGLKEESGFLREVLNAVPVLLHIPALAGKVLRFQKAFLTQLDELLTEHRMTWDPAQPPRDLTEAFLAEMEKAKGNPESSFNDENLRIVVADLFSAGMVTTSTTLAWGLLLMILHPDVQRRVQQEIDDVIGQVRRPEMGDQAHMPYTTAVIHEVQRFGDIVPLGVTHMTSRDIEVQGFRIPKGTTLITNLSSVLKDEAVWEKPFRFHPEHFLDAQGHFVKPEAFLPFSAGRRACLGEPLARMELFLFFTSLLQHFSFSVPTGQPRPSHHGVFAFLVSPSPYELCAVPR
Chain of CYP1A2 (P05177 whole entry): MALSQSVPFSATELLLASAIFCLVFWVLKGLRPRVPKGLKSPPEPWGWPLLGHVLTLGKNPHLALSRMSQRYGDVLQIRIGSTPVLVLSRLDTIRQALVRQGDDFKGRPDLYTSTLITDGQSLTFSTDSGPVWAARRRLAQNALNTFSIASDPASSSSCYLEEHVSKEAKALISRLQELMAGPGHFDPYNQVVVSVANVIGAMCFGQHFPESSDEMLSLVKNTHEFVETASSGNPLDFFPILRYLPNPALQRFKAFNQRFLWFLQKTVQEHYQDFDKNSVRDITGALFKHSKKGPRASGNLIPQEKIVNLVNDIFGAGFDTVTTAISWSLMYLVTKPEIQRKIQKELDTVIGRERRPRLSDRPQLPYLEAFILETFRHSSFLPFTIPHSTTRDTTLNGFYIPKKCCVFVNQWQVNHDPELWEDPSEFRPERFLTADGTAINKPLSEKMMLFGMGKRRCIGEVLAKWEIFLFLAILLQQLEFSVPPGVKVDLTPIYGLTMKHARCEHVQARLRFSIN

COc1cccc(NCC(F)Cn2c3ccc(Br)cc3c3cc(Br)ccc32)c1 (stereo not drawn) [P7C3-A20, N-(3-(3,6-dibromo-9H-carbazol-9-yl)-2-fluoropropyl)-3-methoxyaniline]
level of compound required for maximal Dox:Tox protection (U2OS cells): 3 µM | protection from doxorubicin-mediated cell toxicity (U2OS cells; U2OS cells, FIG. 11): dose-responsive activity | maximal enhancement of NAD [1]: 20-30% | protection of substantia nigra neurons from MPTP (earlier report) [2]: protect neurons in the substantia nigra | motor neuron cell death in the spinal cord [3]: minimize motor neuron cell death

COc1cccc(NCC(F)Cn2c3ccc(Br)cc3c3cc(Br)ccc32)n1 (single isomer, unassigned; (-)) [(−)-P7C3-S243, (−)-N-(3-(3,6-dibromo-9H-carbazol-9-yl)-2-fluoropropyl)-6-methoxypyridin-2-amine]
IC50 (H2122): > 10 µM | IC50 (H2009): > 10 µM | sensitivity of cytochrome P450 [4]: insensitive | sensitivity of cytochrome P450 (2C8): insensitive | inhibition at 50 µM (hERG): < 15% | IC50 (CYP1A2): 20 µM

COc1cccc(NCC(F)Cn2c3ccc(Br)cc3c3cc(Br)ccc32)n1 (racemic) [P7C3-S243, N-(3-(3,6-dibromo-9H-carbazol-9-yl)-2-fluoropropyl)-6-methoxypyridin-2-amine]
protection down to (dose) (newborn neurons): 1 mg/kg/day | T1/2 [5]: > 4 h | blast-induced LTP deficit ([6]; 0.3 mg/kg/d from 24 hours after injury): not rescued | blast-induced deficits in LTP and PPF ([6]; 0.3 mg/kg/day): had no effect | blast-induced PPF deficit, 50 ms inter-pulse interval ([6]; 3 and 30 mg/kg/d): rescued | blast-induced LTP deficit ([6]; 3 and 30 mg/kg/d from 24 hours after injury): rescued | % F (brain) ([7]; IP 10 mg/kg): 28% | % F (plasma) ([7]; IP 10 mg/kg): 66% | AUC(brain) ([7]; IP 10 mg/kg): 189 ± 35 µg·min/g | T1/2 ([7]; IP 10 mg/kg): >24 h | % F (brain) ([7]; IP 20 mg/kg): 48% | AUC(brain) ([7]; IP 20 mg/kg): 319 ± 68 µg·min/g | T1/2 ([7]; IP 20 mg/kg): 15 h | AUC(brain) ([7]; IV 10 mg/kg): 671 ± 14 µg·min/g | T1/2 ([7]; IV 10 mg/kg): 7.4 h | AUC(brain) ([7]; PO 20 mg/kg): 388 ± 29 µg·min/g | T1/2 ([7]; PO 20 mg/kg): 9.6 h | metabolic stability in vivo ([7]; all routes of administration): metabolically stable | brain levels ([7]; following IP dosing): dose-proportional increase
